# According to ChEMBL document CHEMBL5357059, “Arenarialins A-F, Anti-inflammatory Meroterpenoids with Rearranged Skeletons from the Marine Sponge Dysidea arenaria” (J Nat Prod, 2024):
# Activity calls are given as the source filed them. The calls are words filed in the database; no cut-off is given here.
# Assays:
# [1] = test system: RAW264.7; assay: Cytotoxicity against mouse RAW264.7 cells assessed as reduction in cell viability at 2.5 to 20 uM incubated for 24 hrs by CCK-8 assay; type: toxicity, cell-based; settings: raw264.7, 24 h, dose 2.5-20 µM
# [2] = biological target: T1, NF-kappa-B inhibitor alpha (Mus musculus) (UniProt Q9Z1E3); assay: Inhibition of IkappaBalpha phosphorylation at Ser32 residue in LPS-induced mouse RAW264.7 cells at 5 uM pretreated for 2 hrs followed by LPS stimulation and measured after 25 mins by Western blot analysis; type: cell-based; settings: time 145.0 min
# T1 sequence (whole entry): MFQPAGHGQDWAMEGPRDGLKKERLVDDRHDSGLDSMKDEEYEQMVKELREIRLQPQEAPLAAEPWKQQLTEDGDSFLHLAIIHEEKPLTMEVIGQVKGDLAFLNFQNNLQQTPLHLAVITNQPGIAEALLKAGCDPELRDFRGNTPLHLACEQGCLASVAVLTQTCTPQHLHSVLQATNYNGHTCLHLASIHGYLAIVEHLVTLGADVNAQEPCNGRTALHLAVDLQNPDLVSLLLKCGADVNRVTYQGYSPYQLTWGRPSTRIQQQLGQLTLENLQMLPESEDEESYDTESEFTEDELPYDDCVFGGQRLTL
# [3] = biological target: Mitogen-activated protein kinase 1 and 3 (ERK2 and ERK1) (Mus musculus) (UniProt P63085+Q63844); assay: Inhibition of LPS-induced ERK1/2 phosphorylation in mouse RAW264.7 cells assessed as reduction in p-ERK1/2 protein expression at 2.5 to 5 uM pretreated for 2 hrs followed by LPS stimulation and measured after 25 mins by Western blot analysis; type: cell-based; settings: dose 2.5-5 µM, time 145.0 min
# Chain of Mitogen-activated protein kinase 1 and 3 (ERK2 and ERK1) (Mus musculus) (P63085 whole entry, looked up): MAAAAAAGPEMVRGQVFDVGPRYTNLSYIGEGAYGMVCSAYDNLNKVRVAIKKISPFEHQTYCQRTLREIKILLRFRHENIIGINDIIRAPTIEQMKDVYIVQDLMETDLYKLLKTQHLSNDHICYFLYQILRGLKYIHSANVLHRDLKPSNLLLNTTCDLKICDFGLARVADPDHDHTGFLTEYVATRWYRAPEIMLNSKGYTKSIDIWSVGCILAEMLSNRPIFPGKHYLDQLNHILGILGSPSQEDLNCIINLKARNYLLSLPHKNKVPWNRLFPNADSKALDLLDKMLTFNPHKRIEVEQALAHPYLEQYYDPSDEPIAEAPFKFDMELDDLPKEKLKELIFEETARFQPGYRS
# Chain of Mitogen-activated protein kinase 1 and 3 (ERK2 and ERK1) (Mus musculus) (Q63844 whole entry, looked up): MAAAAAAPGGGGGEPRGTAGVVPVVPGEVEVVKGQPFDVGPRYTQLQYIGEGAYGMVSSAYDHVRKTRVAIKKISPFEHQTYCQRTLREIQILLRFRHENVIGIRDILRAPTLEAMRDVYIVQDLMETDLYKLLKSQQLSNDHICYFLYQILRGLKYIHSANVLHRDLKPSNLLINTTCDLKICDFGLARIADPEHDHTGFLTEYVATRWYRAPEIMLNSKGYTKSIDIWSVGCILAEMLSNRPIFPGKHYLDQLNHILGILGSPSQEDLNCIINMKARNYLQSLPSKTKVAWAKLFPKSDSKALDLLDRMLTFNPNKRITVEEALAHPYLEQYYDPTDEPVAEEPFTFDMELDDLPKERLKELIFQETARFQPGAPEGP
# [4] = test system: RAW264.7; assay: Antiinflammatory activity in LPS-induced mouse RAW264.7 cells assessed as inhibition of TNFalpha production at 5 to 20 uM pretreated for 1 hr followed by LPS stimulation and measured after 3 hrs by ELISA; type: functional, cell-based; settings: dose 5-20 µM, time 4.0 hrs
# [5] = test system: RAW264.7; assay: Effect on COX-2 protein expression in LPS-induced mouse RAW264.7 cells at 5 uM pretreated for 2 hrs followed by LPS stimulation and measured after 25 mins by Western blot analysis; type: functional, cell-based; settings: time 145.0 min
# [6] = biological target: Transcription factor p65 (Mus musculus) (UniProt Q04207); assay: Inhibition of NFkappaB p65 phosphorylation at Ser536 residue in LPS-induced mouse RAW264.7 cells assessed as downregulation of p-NFkappaB p65 protein expression at 5 uM pretreated for 2 hrs followed by LPS stimulation and measured after 25 mins by Western blot analysis; type: cell-based; settings: time 145.0 min
# Chain of Transcription factor p65 (Mus musculus) (Q04207 whole entry): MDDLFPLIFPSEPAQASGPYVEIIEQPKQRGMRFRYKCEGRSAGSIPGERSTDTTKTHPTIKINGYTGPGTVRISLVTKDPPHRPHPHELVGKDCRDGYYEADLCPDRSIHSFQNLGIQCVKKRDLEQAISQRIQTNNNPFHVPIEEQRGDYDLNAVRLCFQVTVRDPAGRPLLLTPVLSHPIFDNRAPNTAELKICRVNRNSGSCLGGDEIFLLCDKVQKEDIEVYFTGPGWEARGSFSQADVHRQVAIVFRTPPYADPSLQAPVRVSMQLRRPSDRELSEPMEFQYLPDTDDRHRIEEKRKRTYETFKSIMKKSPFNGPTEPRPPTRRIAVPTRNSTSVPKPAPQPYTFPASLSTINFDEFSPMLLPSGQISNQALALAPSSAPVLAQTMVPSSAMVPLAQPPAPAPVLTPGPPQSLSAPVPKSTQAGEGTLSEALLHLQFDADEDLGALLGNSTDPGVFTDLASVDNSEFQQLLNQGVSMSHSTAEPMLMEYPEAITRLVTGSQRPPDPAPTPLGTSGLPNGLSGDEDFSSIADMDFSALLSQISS
# [7] = test system: RAW264.7; assay: Inhibition of LPS-induced p38 phosphorylation in mouse RAW264.7 cells assessed as reduction in p-p38 protein expression at 2.5 to 5 uM pretreated for 2 hrs followed by LPS stimulation and measured after 25 mins by Western blot analysis; type: cell-based; settings: dose 2.5-5 µM, time 145.0 min
# [8] = test system: RAW264.7; assay: Antiinflammatory activity in LPS-induced mouse RAW264.7 cells assessed as inhibition of IL-6 production pretreated for 1 hr followed by LPS stimulation and measured after 3 hrs by ELISA; type: functional, cell-based; settings: dose 2.5-20 µM, time 4.0 hrs
# [9] = biological target: c-Jun N-terminal kinase (Mus musculus) (UniProt Q91Y86+Q9WTU6+Q61831); assay: Inhibition of LPS-induced JNK phosphorylation in mouse RAW264.7 cells assessed as reduction in p-JNK protein expression at 2.5 to 5 uM pretreated for 2 hrs followed by LPS stimulation and measured after 25 mins by Western blot analysis; type: cell-based; settings: dose 2.5-5 µM, time 145.0 min
# Chain of c-Jun N-terminal kinase (Mus musculus) (Q61831 whole entry, looked up): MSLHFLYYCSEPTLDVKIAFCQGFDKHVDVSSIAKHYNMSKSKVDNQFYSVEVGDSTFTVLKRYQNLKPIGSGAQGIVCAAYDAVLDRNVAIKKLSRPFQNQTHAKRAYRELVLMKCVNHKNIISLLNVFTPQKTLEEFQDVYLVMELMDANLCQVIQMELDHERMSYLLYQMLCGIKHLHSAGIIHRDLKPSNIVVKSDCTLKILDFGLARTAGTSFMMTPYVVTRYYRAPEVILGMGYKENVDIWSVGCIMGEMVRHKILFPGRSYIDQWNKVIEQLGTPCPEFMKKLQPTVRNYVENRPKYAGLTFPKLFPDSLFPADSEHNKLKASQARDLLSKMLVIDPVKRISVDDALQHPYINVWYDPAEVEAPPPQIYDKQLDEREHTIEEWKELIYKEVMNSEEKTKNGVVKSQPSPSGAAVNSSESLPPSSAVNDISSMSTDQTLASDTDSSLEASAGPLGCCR
# Chain of c-Jun N-terminal kinase (Mus musculus) (Q91Y86 whole entry, looked up): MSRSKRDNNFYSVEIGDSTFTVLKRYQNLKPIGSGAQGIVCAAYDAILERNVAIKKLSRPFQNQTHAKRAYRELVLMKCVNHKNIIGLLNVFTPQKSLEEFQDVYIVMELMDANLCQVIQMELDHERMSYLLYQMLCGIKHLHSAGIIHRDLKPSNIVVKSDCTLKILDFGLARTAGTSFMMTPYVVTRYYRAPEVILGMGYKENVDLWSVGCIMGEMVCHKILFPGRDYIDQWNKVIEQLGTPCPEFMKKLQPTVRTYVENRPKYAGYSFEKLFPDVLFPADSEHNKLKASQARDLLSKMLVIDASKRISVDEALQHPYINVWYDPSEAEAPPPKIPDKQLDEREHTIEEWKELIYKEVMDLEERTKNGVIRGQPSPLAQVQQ
# Chain of c-Jun N-terminal kinase (Mus musculus) (Q9WTU6 whole entry, looked up): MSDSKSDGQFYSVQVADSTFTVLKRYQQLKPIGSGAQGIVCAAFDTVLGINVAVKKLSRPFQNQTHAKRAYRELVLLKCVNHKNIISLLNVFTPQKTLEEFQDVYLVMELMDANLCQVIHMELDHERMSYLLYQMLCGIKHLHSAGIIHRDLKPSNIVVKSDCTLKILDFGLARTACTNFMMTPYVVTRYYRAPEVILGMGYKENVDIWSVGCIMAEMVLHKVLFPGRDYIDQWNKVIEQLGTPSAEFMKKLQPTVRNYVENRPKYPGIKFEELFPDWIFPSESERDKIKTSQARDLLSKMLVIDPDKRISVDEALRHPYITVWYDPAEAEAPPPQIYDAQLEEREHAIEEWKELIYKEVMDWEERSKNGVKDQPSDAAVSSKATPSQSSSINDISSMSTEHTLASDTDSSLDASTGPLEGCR
inhibition [2],inhibition [3],inhibition [6],inhibition [9],Structure (SMILES),Activity [1],Activity [4],Activity [5],inhibition [7],Activity [8]
,,,,C[C@H]1CC[C@]2(C)[C@@H](C)OC(=O)C[C@]23c2c(O)ccc(O)c2C[C@]13C,Non-Toxic,,,,
inactive,Active,Active,Active,C[C@@H]1CC[C@@]2(C)OC(=O)[C@H]3Oc4ccc(O)cc4C[C@]1(C)[C@@H]32,Non-Toxic,Active,inactive,Active,Dose-Dependent Effect
,,,,CCOC1=CC(=O)C2=C(C1=O)[C@@H]1C[C@]3(C)C(C)=CCCC3=C(C)[C@]1(C)C2,Non-Toxic,Active,,,
,,,,CC1=CC(=O)[C@@H]2Oc3ccc(O)cc3C[C@]3(C)[C@@H](C)CC[C@@]1(C)[C@@H]23,Non-Toxic,Active,,,Dose-Dependent Effect
,,,,C[C@H]1CC[C@@]2(C)[C@]34CC(=O)C[C@]2(C)Oc2ccc(O)c(c23)C[C@]14C,Non-Toxic,Active,,,Dose-Dependent Effect
,,,,C=C1[C@H](O)C[C@@H]2Oc3ccc(O)cc3C[C@]3(C)[C@@H](C)CC[C@@]1(C)[C@@H]23,Non-Toxic,,,,Dose-Dependent Effect
